Patent US20260250519A1, “Copper Containing Compounds and Compositions for Antimicrobial Paint and Coating” (ARXADA, LLC, priority 2022, published 2026)
Entries after “also recorded” stand apart in the source; their conditions may differ.

Experiments:
[1] = system: Aspergillus niger (ATCC 6275), Aureobasidium pullulans (ATCC 9348) and Penicillium citrinum (ATCC 9849); test: ASTM resistance to growth of mold on interior coatings in an environmental chamber; assay type: cell-based; details: for Avg Rating: 4 weeks in chamber; for antifungal test pass/fail: Pass = rating 8-10 (Table 9)
Method: Two coatings were brushed onto both faces and all edges of wood panel (allowing 1 day between coats). The resulting coated panels were dried at 23±2° C. and 50±5% relative humidity for 4 days. […] In the environmental chamber, the dried coated panels were hung vertically with the bottom approximately 3 inch above the surface of the inoculated soil and with sufficient spacing to allow free circulation of air and to prevent contact between panels or with wall surfaces. […] The degrees of fungal contamination were assessed using the rating scale in Table 9.

[2] = Compatibility of copper compounds in flat wall paint, visual assessment of dry film for grits; assay type: physicochemical; details: 600 ppm Cu in acrylic flat wall paint; dry film inspected for grits
Method: The compatibilities of copper compounds in paint were evaluated via visual assessment of dry film appearance of a flat wall paint (50% PVC, 35% Solid Vol, 45 g/L VOC, Table 1).

[3] = system: Escherichia coli (ATCC 8739); test: Modified JIS Z2801 antibacterial efficacy in dry paint film (μBCC, ZnO); assay type: cell-based; details: ZnO 0 ppm in flat wall paint; for 2 hr Contact Time % ↓ / 2 hr Contact Time Log10 ↓: relative to blank paint
Method: (§1) In brief, μBCC dispersion and optional ZnO dispersion (25 wt %) were added into a flat wall paint (50% PVC, 35% Solid Vol, 45 g/L VOC, Table 1) for target Cu and ZnO level, respectively. The paints were brushed onto the sterilized plastic filter paper. Each side of the filter paper was painted twice and the resulting coated paper was dried at ambient condition for 3 days. The dried coatings were then leached against 10 L water for 24 hours (4 water changes for the first 8 hour). Each of three (3) bacterial inoculum (0.4 mL): Escherichia coli (ATCC 8739), Staphylococcus aureus (ATCC 6538), Pseudomonas aeruginosa (ATCC 15442) was used to inoculate the dry film (40 mm×40 mm) of test paint to achieve 1.0 to 4.0×10^5 cfm/mL of inoculum concentration per each bacteria on dry surface of each test paint. The test paints were incubated at 35±1° C. and 90% relative humidity (RH) for 2 hour. The degrees of bacterial contamination of all samples were determined relative to blank paint via viable cell count of bacteria by agar plate culture method.

[4] = system: Pseudomonas aeruginosa (ATCC 15442); test: as above; assay type: cell-based; details: ZnO 0 ppm in flat wall paint; for 2 hr Contact Time % ↓ / 2 hr Contact Time Log10 ↓: relative to blank paint
Method: as §1

[5] = system: Staphylococcus aureus (ATCC 6538); test: as above; assay type: cell-based; details: ZnO 0 ppm in flat wall paint; for 2 hr Contact Time % ↓ / 2 hr Contact Time Log10 ↓: relative to blank paint
Method: as §1

[6] = system: Pseudomonas aeruginosa (ATCC 15442); test: Interim EPA method for antimicrobial surface coatings, flat wall paint; assay type: cell-based; details: 1670 ppm in flat wall paint
Method: (§2) The antibacterial efficacies of copper-containing composition in dry paint film were evaluated using an interim EPA method (Interim Method for Evaluating the Efficacy of Antimicrobial Surface Coatings: Oct. 2, 2020). In brief, μBCC dispersion was added into a flat wall paint (38% Solid Vol, <50 g/L VOC) for target Cu level. The paints were drawn-down onto the sterilized steel substrate (1 inch by 1 inch of AISI type 304 stainless steel). The resulting coated substrate was dried at ambient condition for at least 24 hours. Each of two (2) bacterial inoculum ([…]): Staphylococcus aureus (ATCC 6538) and Pseudomonas aeruginosa (ATCC 15442) was used to inoculate the dry film of test paint to achieve 10^4 to 10^5 cfm/carrier of each bacteria on dry surface of each test paint. The test paints were incubated at 22° C. and 30-40% RH for 2 hours. The degrees of bacterial contamination were determined via viable cell count for antibacterial efficacy relative to the uncoated substrate.

[7] = system: Staphylococcus aureus (ATCC 6538); test: as above; assay type: cell-based; details: Cu 1670 ppm in flat wall paint
Method: as §2

Molecule: N,N-Didecyl-N,N-dimethylammonium carbonate/bicarbonate [reference compound]
- Avg Rating ([1]; no Cu additive, Quat level 2000 ppm): 3.3

Molecule: O=S(=O)([O-])[O-].[Cu+2] [CuSO4, copper sulfate, reference compound]
- Compatibilities of Copper Compounds in Paint [2]: Incompatible (many grits)

Molecule: O=C([O-])[O-].[Cu+2].[Cu+2].[OH-].[OH-] [μBCC, Micronized basic copper carbonate]
- Compatibilities of Copper Compounds in Paint [2]: compatible; also recorded: Compatible (no grits)
- 2 hr Contact Time Avg ([3]; Cu 165 ppm): <5.7E+01
- 2 hr Contact Time Log10 ([3]; Cu 165 ppm): <1.75
- 2 hr Contact Time % ↓ ([3]; Cu 165 ppm): ≥99.920%
- 2 hr Contact Time Log10 ↓ ([3]; Cu 165 ppm): ≥3.10
- 2 hr Contact Time Avg ([3]; Cu 330 ppm): <1.0E+01
- 2 hr Contact Time Log10 ([3]; Cu 330 ppm): <1.00
- 2 hr Contact Time % ↓ ([3]; Cu 330 ppm): ≥99.986%
- 2 hr Contact Time Log10 ↓ ([3]; Cu 330 ppm): ≥3.85
- 2 hr Contact Time Avg ([3]; Cu 824 ppm): <4.0E+01
- 2 hr Contact Time Log10 ([3]; Cu 824 ppm): <1.60
- 2 hr Contact Time % ↓ ([3]; Cu 824 ppm): ≥99.944%
- 2 hr Contact Time Log10 ↓ ([3]; Cu 824 ppm): ≥3.25
- 2 hr Contact Time Avg ([3]; Cu 1650 ppm): <1.0E+01
- 2 hr Contact Time Log10 ([3]; Cu 1650 ppm): <1.00
- 2 hr Contact Time % ↓ ([3]; Cu 1650 ppm): ≥99.986%
- 2 hr Contact Time Log10 ↓ ([3]; Cu 1650 ppm): ≥3.85
- 2 hr Contact Time Avg ([4]; Cu 165 ppm): 1.2E+03
- 2 hr Contact Time Log10 ([4]; Cu 165 ppm): 3.08
- 2 hr Contact Time % ↓ ([4]; Cu 165 ppm): 93.632%
- 2 hr Contact Time Log10 ↓ ([4]; Cu 165 ppm): 1.20
- 2 hr Contact Time Avg ([4]; Cu 330 ppm): 1.3E+03
- 2 hr Contact Time Log10 ([4]; Cu 330 ppm): 3.13
- 2 hr Contact Time % ↓ ([4]; Cu 330 ppm): 92.912%
- 2 hr Contact Time Log10 ↓ ([4]; Cu 330 ppm): 1.15
- 2 hr Contact Time Avg ([4]; Cu 824 ppm): <4.7E+01
- 2 hr Contact Time Log10 ([4]; Cu 824 ppm): <1.67
- 2 hr Contact Time % ↓ ([4]; Cu 824 ppm): ≥99.754%
- 2 hr Contact Time Log10 ↓ ([4]; Cu 824 ppm): ≥2.61
- 2 hr Contact Time Avg ([4]; Cu 1650 ppm): 2.7E+01
- 2 hr Contact Time Log10 ([4]; Cu 1650 ppm): 1.43
- 2 hr Contact Time % ↓ ([4]; Cu 1650 ppm): 99.860%
- 2 hr Contact Time Log10 ↓ ([4]; Cu 1650 ppm): 2.85
- 2 hr Contact Time Avg ([5]; Cu 165 ppm): 6.3E+01
- 2 hr Contact Time Log10 ([5]; Cu 165 ppm): 1.80
- 2 hr Contact Time % ↓ ([5]; Cu 165 ppm): 99.936%
- 2 hr Contact Time Log10 ↓ ([5]; Cu 165 ppm): 3.20
- 2 hr Contact Time Avg ([5]; Cu 330 ppm): <2.0E+01
- 2 hr Contact Time Log10 ([5]; Cu 330 ppm): <1.30
- 2 hr Contact Time % ↓ ([5]; Cu 330 ppm): ≥99.980%
- 2 hr Contact Time Log10 ↓ ([5]; Cu 330 ppm): ≥3.70
- 2 hr Contact Time Avg ([5]; Cu 824 ppm): <4.0E+01
- 2 hr Contact Time Log10 ([5]; Cu 824 ppm): <1.60
- 2 hr Contact Time % ↓ ([5]; Cu 824 ppm): ≥99.960%
- 2 hr Contact Time Log10 ↓ ([5]; Cu 824 ppm): ≥3.40
- 2 hr Contact Time Avg ([5]; Cu 1650 ppm): <1.0E+01
- 2 hr Contact Time Log10 ([5]; Cu 1650 ppm): <1.00
- 2 hr Contact Time % ↓ ([5]; Cu 1650 ppm): ≥99.990%
- 2 hr Contact Time Log10 ↓ ([5]; Cu 1650 ppm): ≥4.00
- 2 hr Contact Time Avg [6]: 1.0E+00
- 2 hr Contact Time Log10 [6]: 0.00
- 2 hr Contact Time % ↓ ([6]; relative to uncoated substrate): 99.9964%
- 2 hr Contact Time Log10 ↓ ([6]; relative to uncoated substrate): 4.45
- 2 hr Contact Time Avg [7]: 6.6E+01
- 2 hr Contact Time Log10 [7]: 1.82
- 2 hr Contact Time % ↓ ([7]; relative to uncoated substrate): 99.9287%
- 2 hr Contact Time Log10 ↓ ([7]; relative to uncoated substrate): 3.15
- antifungal test pass/fail ([1]; 167 ppm Cu): fails
- antifungal test pass/fail ([1]; 333 ppm Cu): passes
- Avg Rating ([1]; Cu level 167 ppm, no Quat): 7.7
- Avg Rating ([1]; Cu level 333 ppm, no Quat): 9.3
